Reference: BindingDB's records for doi:10.1021/jm000496v (Welfide, 2001)

Target: Chymotrypsinogen A (Bos taurus) (UniProt P00766)
Assay: Inhibitory activity against alpha chymotrypsin from bovine pancreas.

Ki: 1630 nM
SMILES: Nc1cnc(-c2ccc(F)cc2)n(CC(=O)NC(Cc2ccccc2)C(=O)c2nc3cc(-c4ccccc4)ccc3o2)c1=O (stereo unspecified) [2-[5-Amino-2-(4-fluoro-phenyl)-6-oxo-6H-pyrimidin-1-yl]-N-[1-benzyl-2-oxo-2-(5-phenyl-benzooxazol-2-yl)-ethyl]-acetamide]
